Here are results for one compound from patent US20150125498A1, “NEW PARTICLE STABILIZED EMULSIONS AND FOAMS” (SPEXIMO AB, priority 2010, published 2015).

Series [1] can be described thus: In vitro skin penetration of methyl salicylate in flow diffusion cell (Experiment 9). The format is in vitro ADME, pig.
Experimental: The emulsions contained 56% oil and 214 mg starch/ml oil (corresponding to sample M in experiment 8). The total volume was 7 ml and each experiment was performed in triplicate. Methyl salicylate, dissolved in the oil phase, was used as control substance for studying the permeability into the skin.
The skin diffusion measurement was performed in a flow cell by monitoring the transport of methyl salicylate from the three different topical formulations across pigskin membrane and silicone membrane under a flow of phosphate buffer with pH 6.8. The diffusion experiments were performed in seven-chamber diffusion cells at 32° C. and the donor and receptor phase were separated by a membrane with a diffusion area of 0.64 cm^2 (9 mm Ø). About 1 g of the emulsions (donor phase) were spread uniformly on the membranes. The cells were covered with parafilm to avoid evaporation. Buffer flowed through the pump (IsmatecIPN-16, L852) with a flow of 2 ml/h. Samples were collected every two hours during 12 hours and were analyzed using a spectrophotometer (Varian Carry 50Bio) at the detection wavelength for methyl salicylate (302 nm).
Another series relates to adult humans. The note with it: cited from earlier work.

As usually defined, the LD50 is the dose expected to kill half of the subjects tested. Regarding `COC(=O)c1ccccc1O` [methyl salicylate, Methyl salicylate], the “Steady state flux of methyl salicylate” value in series [1] (pig skin, 32° C., 56% oil starch Pickering emulsions) is reported as “around 8 μg/(cm2*h)”. For the same compound, in series [1] (similar experimental set up observed previously), the “Flux compared with buffer solutions of the same methyl salicylate concentration” value was “nearly two times higher”. Besides, the 50% lethal dose (LD50) with adult humans is reported as 500 mg/kg.
